ChEMBL document CHEMBL1135949, “Pyrrolylquinoxalinediones carrying a piperazine residue represent highly potent and selective ligands to the homomeric kainate receptor GluR5” (Bioorg Med Chem Lett, 2002)

Biological target: T1, Glutamate receptor ionotropic, kainate 5 (Homo sapiens, UniProt Q16478)
T1 sequence (Q16478 whole entry): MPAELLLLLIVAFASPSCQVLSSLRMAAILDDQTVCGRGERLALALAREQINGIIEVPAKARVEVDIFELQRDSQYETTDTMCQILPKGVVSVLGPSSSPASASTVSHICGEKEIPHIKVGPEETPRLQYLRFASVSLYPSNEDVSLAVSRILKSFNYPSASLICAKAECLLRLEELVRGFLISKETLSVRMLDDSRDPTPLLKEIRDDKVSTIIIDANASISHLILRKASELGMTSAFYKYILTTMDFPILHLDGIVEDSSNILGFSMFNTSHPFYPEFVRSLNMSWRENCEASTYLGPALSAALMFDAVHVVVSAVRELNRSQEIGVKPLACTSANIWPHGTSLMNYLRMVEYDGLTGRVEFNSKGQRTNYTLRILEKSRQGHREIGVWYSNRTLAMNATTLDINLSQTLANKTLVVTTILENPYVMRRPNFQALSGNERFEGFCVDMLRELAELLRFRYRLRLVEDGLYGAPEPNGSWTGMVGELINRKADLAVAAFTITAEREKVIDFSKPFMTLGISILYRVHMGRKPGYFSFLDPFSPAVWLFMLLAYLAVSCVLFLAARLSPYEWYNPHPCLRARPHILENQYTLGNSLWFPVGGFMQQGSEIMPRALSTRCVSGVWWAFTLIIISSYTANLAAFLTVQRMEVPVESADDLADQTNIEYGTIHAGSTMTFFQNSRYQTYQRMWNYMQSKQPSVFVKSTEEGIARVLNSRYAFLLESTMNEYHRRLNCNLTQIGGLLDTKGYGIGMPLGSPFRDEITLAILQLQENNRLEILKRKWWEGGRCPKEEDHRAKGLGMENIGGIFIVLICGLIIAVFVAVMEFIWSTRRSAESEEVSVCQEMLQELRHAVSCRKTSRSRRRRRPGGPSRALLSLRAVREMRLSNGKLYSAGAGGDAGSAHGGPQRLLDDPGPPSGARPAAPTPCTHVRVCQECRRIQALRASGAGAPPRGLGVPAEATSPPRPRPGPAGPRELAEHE
Test: Binding affinity towards cloned human Kai-2 subunit stably expressed in cultured HEK293 cells using [3]H-kainate as radioligand
Format: cell-based

| Ki | Structure (SMILES) |
| --- | --- |
| 18 µM | O=C(O)Cn1c(=O)c(=O)[nH]c2cc([N+](=O)[O-])c(-n3ccc(CN4CCC(c5ccccc5)CC4)c3)cc21 |
| 20 µM | O=C(O)Cn1c(=O)c(=O)[nH]c2cc([N+](=O)[O-])c(-n3ccc(CNCCCc4ccccc4)c3)cc21 |
| 25 µM | O=C(O)Cn1c(=O)c(=O)[nH]c2cc([N+](=O)[O-])c(-n3ccc(CN4CCN(CCc5ccccc5)CC4)c3)cc21 |
| 1.3 µM | O=C(O)Cn1c(=O)c(=O)[nH]c2cc([N+](=O)[O-])c(-n3cccc3)cc21 |
| 20 µM | O=C(O)Cn1c(=O)c(=O)[nH]c2cc([N+](=O)[O-])c(-n3ccc(CN4CCN(Cc5ccccc5)CC4)c3)cc21 |
| > 30 µM | CN(Cc1ccccc1)Cc1ccn(-c2cc3c(cc2[N+](=O)[O-])[nH]c(=O)c(=O)n3CCC(=O)O)c1 |
| > 30 µM | O=C(O)Cn1c(=O)c(=O)[nH]c2cc([N+](=O)[O-])c(-n3ccc(CN4CCCCC4)c3)cc21 |

| Structure (SMILES) | Ki |
| --- | --- |
| O=C(O)CCn1c(=O)c(=O)[nH]c2cc([N+](=O)[O-])c(-n3cccc3)cc21 | 25 µM |

Biological target: Glutamate receptor ionotropic, kainate 2 (Homo sapiens, UniProt Q13002)
Sequence (Q13002 whole entry): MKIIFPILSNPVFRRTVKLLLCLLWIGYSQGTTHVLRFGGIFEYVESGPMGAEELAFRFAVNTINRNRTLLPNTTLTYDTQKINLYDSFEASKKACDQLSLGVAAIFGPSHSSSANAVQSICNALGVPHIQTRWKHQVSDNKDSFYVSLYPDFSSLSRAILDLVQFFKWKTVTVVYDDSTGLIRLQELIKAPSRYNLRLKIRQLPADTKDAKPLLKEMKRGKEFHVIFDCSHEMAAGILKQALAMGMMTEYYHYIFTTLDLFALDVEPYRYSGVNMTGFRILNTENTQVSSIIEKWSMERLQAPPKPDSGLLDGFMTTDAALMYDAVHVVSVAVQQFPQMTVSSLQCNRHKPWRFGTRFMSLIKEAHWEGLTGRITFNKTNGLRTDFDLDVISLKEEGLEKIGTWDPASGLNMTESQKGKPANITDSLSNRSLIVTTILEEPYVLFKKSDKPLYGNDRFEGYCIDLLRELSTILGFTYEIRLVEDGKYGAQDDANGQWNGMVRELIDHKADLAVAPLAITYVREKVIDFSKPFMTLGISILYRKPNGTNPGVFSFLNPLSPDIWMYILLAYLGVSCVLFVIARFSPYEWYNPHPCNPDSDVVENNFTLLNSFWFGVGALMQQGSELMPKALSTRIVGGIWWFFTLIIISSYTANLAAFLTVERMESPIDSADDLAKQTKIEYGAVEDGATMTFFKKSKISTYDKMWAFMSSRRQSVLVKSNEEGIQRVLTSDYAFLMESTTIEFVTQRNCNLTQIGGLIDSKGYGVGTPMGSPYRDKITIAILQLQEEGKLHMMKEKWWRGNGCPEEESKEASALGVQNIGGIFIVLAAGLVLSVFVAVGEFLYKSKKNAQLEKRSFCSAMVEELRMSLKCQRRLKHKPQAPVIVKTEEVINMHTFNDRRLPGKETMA
Test: Binding affinity for human GluR6 expressed in HEK293 cells using [3]H-kainate
Format: cell-based

| Ki | Structure (SMILES) |
| --- | --- |
| 3.6 µM | O=C(O)Cn1c(=O)c(=O)[nH]c2cc([N+](=O)[O-])c(-n3ccc(CN4CCC(c5ccccc5)CC4)c3)cc21 |
| 6.2 µM | O=C(O)Cn1c(=O)c(=O)[nH]c2cc([N+](=O)[O-])c(-n3ccc(CNCCCc4ccccc4)c3)cc21 |
| 1.5 µM | NCc1ccn(-c2cc3c(cc2[N+](=O)[O-])[nH]c(=O)c(=O)n3CC(=O)O)c1 |
| 1.4 µM | O=C(O)Cn1c(=O)c(=O)[nH]c2cc([N+](=O)[O-])c(-n3ccc(CN4CCN(CCc5ccccc5)CC4)c3)cc21 |
| 3.9 µM | O=C(O)Cn1c(=O)c(=O)[nH]c2cc([N+](=O)[O-])c(-n3cccc3)cc21 |
| 4.1 µM | O=C(O)Cn1c(=O)c(=O)[nH]c2cc([N+](=O)[O-])c(-n3ccc(CN4CCN(Cc5ccccc5)CC4)c3)cc21 |
| 23 µM | CN(Cc1ccccc1)Cc1ccn(-c2cc3c(cc2[N+](=O)[O-])[nH]c(=O)c(=O)n3CCC(=O)O)c1 |
| 28 µM | O=C(O)Cn1c(=O)c(=O)[nH]c2cc([N+](=O)[O-])c(-n3ccc(CN4CCCCC4)c3)cc21 |

| Structure (SMILES) | Ki |
| --- | --- |
| O=C(O)Cn1c(=O)c(=O)[nH]c2cc(C(F)(F)F)c(-n3ccc(CNC(=O)Nc4ccc([N+](=O)[O-])cc4)c3)cc21 | 0.61 µM |
| O=C(O)Cn1c(=O)c(=O)[nH]c2cc([N+](=O)[O-])c(-n3ccc(C(=O)O)c3)cc21 | 5.8 µM |
| O=C(O)CCn1c(=O)c(=O)[nH]c2cc([N+](=O)[O-])c(-n3cccc3)cc21 | 1.2 µM |

Biological target: T1, Glutamate receptor ionotropic, kainate 5
Test: Binding affinity towards Kai-2 using [3]H-kainate as the radioligand

| Structure (SMILES) | Ki |
| --- | --- |
| O=C(O)Cn1c(=O)c(=O)[nH]c2cc(C(F)(F)F)c(-n3ccc(CNC(=O)Nc4ccc([N+](=O)[O-])cc4)c3)cc21 | 12 µM |
| O=C(O)Cn1c(=O)c(=O)[nH]c2cc([N+](=O)[O-])c(-n3ccc(C(=O)O)c3)cc21 | 11 µM |
| NCc1ccn(-c2cc3c(cc2[N+](=O)[O-])[nH]c(=O)c(=O)n3CC(=O)O)c1 | 9.8 µM |

Biological target: Glutamate receptor ionotropic, kainate 1 (Homo sapiens, UniProt P39086)
Sequence (P39086 whole entry): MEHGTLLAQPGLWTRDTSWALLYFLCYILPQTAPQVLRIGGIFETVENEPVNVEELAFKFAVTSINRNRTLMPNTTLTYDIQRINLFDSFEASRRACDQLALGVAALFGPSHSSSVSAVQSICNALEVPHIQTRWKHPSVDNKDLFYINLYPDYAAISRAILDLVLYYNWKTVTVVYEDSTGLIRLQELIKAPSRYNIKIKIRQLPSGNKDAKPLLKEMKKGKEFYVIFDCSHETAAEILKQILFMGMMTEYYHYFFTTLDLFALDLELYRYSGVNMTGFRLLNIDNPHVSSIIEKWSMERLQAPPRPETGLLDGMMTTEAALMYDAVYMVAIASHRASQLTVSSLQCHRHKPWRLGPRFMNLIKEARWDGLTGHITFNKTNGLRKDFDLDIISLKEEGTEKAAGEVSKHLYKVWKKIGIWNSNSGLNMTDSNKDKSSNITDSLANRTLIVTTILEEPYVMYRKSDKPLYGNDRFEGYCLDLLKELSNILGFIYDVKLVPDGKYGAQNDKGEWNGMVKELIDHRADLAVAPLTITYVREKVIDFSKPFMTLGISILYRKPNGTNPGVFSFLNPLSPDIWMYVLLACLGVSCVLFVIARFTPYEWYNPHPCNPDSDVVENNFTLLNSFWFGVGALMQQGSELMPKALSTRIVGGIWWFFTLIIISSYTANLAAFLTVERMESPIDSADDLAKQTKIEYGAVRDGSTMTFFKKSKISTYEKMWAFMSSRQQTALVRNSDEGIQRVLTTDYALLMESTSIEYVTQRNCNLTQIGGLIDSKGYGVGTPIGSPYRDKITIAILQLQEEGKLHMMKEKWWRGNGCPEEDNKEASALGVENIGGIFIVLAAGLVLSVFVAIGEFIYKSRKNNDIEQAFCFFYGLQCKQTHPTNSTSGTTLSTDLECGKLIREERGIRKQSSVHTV
Test: Binding affinity towards cloned human GluR5 subunit stably expressed in cultured HEK293 cells using [3]H-kainate as radioligand
Format: cell-based

| Structure (SMILES) | Ki |
| --- | --- |
| O=C(O)Cn1c(=O)c(=O)[nH]c2cc(C(F)(F)F)c(-n3ccc(CNC(=O)Nc4ccc([N+](=O)[O-])cc4)c3)cc21 | 0.1 µM |
| O=C(O)Cn1c(=O)c(=O)[nH]c2cc([N+](=O)[O-])c(-n3ccc(C(=O)O)c3)cc21 | 1.4 µM |
| O=C(O)CCn1c(=O)c(=O)[nH]c2cc([N+](=O)[O-])c(-n3cccc3)cc21 | 2.4 µM |
